Measurements reported in patent US10201546B2, “Quinolinyl modulators of RORγt” (Janssen Pharmaceutica NV, priority 2013, dated 2019).

molecular target: human RORγt LBD fused to the DNA binding domain of the GAL4 protein (Homo sapiens (Human), UniProt P51449); assay: RORγt (LBD) reporter assay in HEK293T cells; format: cell-based; details: @ 6 μM
Sequence (P51449 258-518): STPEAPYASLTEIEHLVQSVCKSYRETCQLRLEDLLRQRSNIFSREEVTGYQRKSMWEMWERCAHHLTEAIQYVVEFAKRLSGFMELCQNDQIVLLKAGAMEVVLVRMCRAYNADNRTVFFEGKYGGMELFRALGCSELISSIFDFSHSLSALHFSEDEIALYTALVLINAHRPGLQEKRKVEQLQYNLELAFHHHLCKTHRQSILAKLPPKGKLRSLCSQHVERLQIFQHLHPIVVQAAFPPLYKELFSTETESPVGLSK

Row | Compound | RORγt (LBD) Reporter Assay, % inhibition @ 6 μM [%]
1 | COc1nc2ccc(C(O)(c3ccc(C)nc3C)c3cnnn3C)cc2c(Cl)c1OCC1CC1 (single isomer, unassigned) [Example 68b, [4-Chloro-3-(cyclopropylmethoxy)-2-methoxyquinolin-6-yl](2,6-dimethylpyridin-3-yl)(1-methyl-1H-1,2,3-triazol-5-yl)methanol] | 54
2 | COc1nc2ccc(C(O)(c3ccc(C)nc3C)c3cnnn3C)cc2c(Cl)c1OCC1CC1 (single isomer, unassigned) [Example 68c, [4-Chloro-3-(cyclopropylmethoxy)-2-methoxyquinolin-6-yl](2,6-dimethylpyridin-3-yl)(1-methyl-1H-1,2,3-triazol-5-yl)methanol] | 87
3 | COc1nc2ccc(C(O)(c3ccc(C)nc3C)c3cnnn3C)cc2c(Cl)c1OC1CCOCC1 (single isomer, unassigned) [Example 69b, [4-Chloro-2-methoxy-3-(tetrahydro-2H-pyran-4-yloxy)quinolin-6-yl](2,6-dimethylpyridin-3-yl)(1-methyl-1H-1,2,3-triazol-5-yl)methanol] | 37
4 | COc1nc2ccc(C(O)(c3ccc(C)nc3C)c3cnnn3C)cc2c(Cl)c1OC1CCOCC1 (single isomer, unassigned) [Example 69c, [4-Chloro-2-methoxy-3-(tetrahydro-2H-pyran-4-yloxy)quinolin-6-yl](2,6-dimethylpyridin-3-yl)(1-methyl-1H-1,2,3-triazol-5-yl)methanol] | 61
5 | COc1nc2ccc(C(O)(c3ccc(C)nc3C)c3cnnn3C)cc2c(Cl)c1OCC1CC1(F)F (single isomer, unassigned) [Example 72b, {4-Chloro-3-[(2,2-difluorocyclopropyl)methoxy]-2-methoxyquinolin-6-yl}(2,6-dimethylpyridin-3-yl)(1-methyl-1H-1,2,3-triazol-5-yl)methanol] | 53
6 | COc1nc2ccc(C(O)(c3ccc(C)nc3C)c3cnnn3C)cc2c(Cl)c1OCC1CC1(F)F (single isomer, unassigned) [Example 72c, {4-Chloro-3-[(2,2-difluorocyclopropyl)methoxy]-2-methoxyquinolin-6-yl}(2,6-dimethylpyridin-3-yl)(1-methyl-1H-1,2,3-triazol-5-yl)methanol] | 86
7 | COc1nc2ccc(C(O)(c3ccc(C)nc3C)c3cnnn3C)cc2c(Cl)c1OCc1nccs1 (single isomer, unassigned) [Example 73b, [4-Chloro-2-methoxy-3-(1,3-thiazol-2-ylmethoxy)quinolin-6-yl](2,6-dimethylpyridin-3-yl)(1-methyl-1H-1,2,3-triazol-5-yl)methanol] | −15
8 | COc1nc2ccc(C(O)(c3ccc(C)nc3C)c3cnnn3C)cc2c(Cl)c1OCc1nccs1 (single isomer, unassigned) [Example 73c, [4-Chloro-2-methoxy-3-(1,3-thiazol-2-ylmethoxy)quinolin-6-yl](2,6-dimethylpyridin-3-yl)(1-methyl-1H-1,2,3-triazol-5-yl)methanol] | −80
9 | COCCOc1c(OC)nc2ccc(C(O)(c3ccc(C(F)(F)F)nc3)c3cncn3C)cc2c1Cl (single isomer, unassigned) [Example 79b, [4-Chloro-2-methoxy-3-(2-methoxyethoxy)quinolin-6-yl](1-methyl-1H-imidazol-5-yl)[6-(trifluoromethyl)pyridin-3-yl]methanol] | 30
10 | COCCOc1c(OC)nc2ccc(C(O)(c3ccc(C(F)(F)F)nc3)c3cncn3C)cc2c1Cl (single isomer, unassigned) [Example 79c, [4-Chloro-2-methoxy-3-(2-methoxyethoxy)quinolin-6-yl](1-methyl-1H-imidazol-5-yl)[6-(trifluoromethyl)pyridin-3-yl]methanol] | −2.5
11 | COc1nc2ccc(C(O)(c3ccc(C)nc3C)c3cnnn3C)cc2c(Cl)c1CN1CCC(C(F)(F)F)CC1 (single isomer, unassigned) [Example 103c, (4-Chloro-2-methoxy-3-((4-(trifluoromethyl)piperidin-1-yl)methyl)quinolin-6-yl)(2,6-dimethylpyridin-3-yl)(1-methyl-1H-1,2,3-triazol-5-yl)methanol] | 99
12 | COc1nc2ccc(C(O)(c3ccc(C)nc3C)c3cnnn3C)cc2c(Cl)c1CN1CCC(n2cccn2)CC1 (single isomer, unassigned) [Example 105b, (3-((4-(1H-Pyrazol-1-yl)piperidin-1-yl)methyl)-4-chloro-2-methoxyquinolin-6-yl)(2,6-dimethylpyridin-3-yl)(1-methyl-1H-1,2,3-triazol-5-yl)methanol] | 33
13 | COc1nc2ccc(C(O)(c3ccc(C)nc3C)c3cnnn3C)cc2c(Cl)c1CN1CCC(n2cccn2)CC1 (single isomer, unassigned) [Example 105c, (3-((4-(1H-Pyrazol-1-yl)piperidin-1-yl)methyl)-4-chloro-2-methoxyquinolin-6-yl)(2,6-dimethylpyridin-3-yl)(1-methyl-1H-1,2,3-triazol-5-yl)methanol] | 87
14 | COc1nc2ccc(C(O)(c3ccc(C)nc3C)c3cnnn3C)cc2c(Cl)c1CN1CCC(F)(F)CC1 (single isomer, unassigned) [Example 107c, (4-Chloro-3-((4,4-difluoropiperidin-1-yl)methyl)-2-methoxyquinolin-6-yl)(2,6-dimethylpyridin-3-yl)(1-methyl-1H-1,2,3-triazol-5-yl)methanol] | 54
15 | COc1nc2ccc(C(O)(c3ccc(C)nc3C)c3cnnn3C)cc2c(Cl)c1CN1CCC(F)CC1 (single isomer, unassigned) [Example 108b, (4-Chloro-3-((4-fluoropiperidin-1-yl)methyl)-2-methoxyquinolin-6-yl)(2,6-dimethylpyridin-3-yl)(1-methyl-1H-1,2,3-triazol-5-yl)methanol] | 6
16 | COc1nc2ccc(C(O)(c3ccc(C)nc3C)c3cnnn3C)cc2c(Cl)c1CN1CCC(F)CC1 (single isomer, unassigned) [Example 108c, (4-Chloro-3-((4-fluoropiperidin-1-yl)methyl)-2-methoxyquinolin-6-yl)(2,6-dimethylpyridin-3-yl)(1-methyl-1H-1,2,3-triazol-5-yl)methanol] | 14
17 | COc1nc2ccc(C(O)(c3ccc(C(F)(F)F)nc3)c3cncn3C)cc2c(Cl)c1CN1CCC(C(F)(F)F)CC1 (single isomer, unassigned) [Example 112c, (4-Chloro-2-methoxy-3-((4-(trifluoromethyl)piperidin-1-yl)methyl)quinolin-6-yl)(1-methyl-1H-imidazol-5-yl)(6-(trifluoromethyl)pyridin-3-yl)methanol] | 96
18 | COc1nc2ccc(C(O)(c3ccc(C)nc3C)c3cnnn3C)cc2c(Cl)c1CN1CC(C(F)(F)F)C1 (single isomer, unassigned) [Example 114c, (4-Chloro-2-methoxy-3-((3-(trifluoromethyl)azetidin-1-yl)methyl)quinolin-6-yl)(2,6-dimethylpyridin-3-yl)(1-methyl-1H-1,2,3-triazol-5-yl)methanol] | 72

same assay, conditions: HEK-293T, read-out: RORγt (LBD) Reporter Assay, % inhibition @ 6 μM, @ 6 μM

Row | Compound | inhibition at 6 µM [%]
19 | COc1nc2ccc(C(O)(c3ccnc(C(F)(F)F)c3)c3cncn3C)cc2c(Cl)c1CN1CCC(C(F)(F)F)CC1 (single isomer, unassigned) [Example 100b, (4-Chloro-2-methoxy-3-((4-(trifluoromethyl)piperidin-1-yl)methyl)quinolin-6-yl)(1-methyl-1H-imidazol-5-yl)(2-(trifluoromethyl)pyridin-4-yl)methanol] | 90
20 | COc1nc2ccc(C(O)(c3ccc(C)nc3C)c3cnnn3C)cc2c(Cl)c1CN1CCC(C(F)(F)F)CC1 (single isomer, unassigned) [Example 103b, (4-Chloro-2-methoxy-3-((4-(trifluoromethyl)piperidin-1-yl)methyl)quinolin-6-yl)(2,6-dimethylpyridin-3-yl)(1-methyl-1H-1,2,3-triazol-5-yl)methanol] | 90
21 | COc1nc2ccc(C(O)(c3cnnn3C)c3cnc(C)n3C)cc2c(Cl)c1CN1CCC(C(F)(F)F)CC1 (single isomer, unassigned) [Example 106b, (4-Chloro-2-methoxy-3-((4-(trifluoromethyl)piperidin-1-yl)methyl)quinolin-6-yl)(1,2-dimethyl-1H-imidazol-5-yl)(1-methyl-1H-1,2,3-triazol-5-yl)methanol] | 103
22 | COc1nc2ccc(C(O)(c3ccc(C)nc3C)c3cnnn3C)cc2c(Cl)c1CN1CCC(F)(F)CC1 (single isomer, unassigned) [Example 107b, (4-Chloro-3-((4,4-difluoropiperidin-1-yl)methyl)-2-methoxyquinolin-6-yl)(2,6-dimethylpyridin-3-yl)(1-methyl-1H-1,2,3-triazol-5-yl)methanol] | 38
23 | COc1nc2ccc(C(O)(c3ccc(C(F)(F)F)nc3)c3cncn3C)cc2c(Cl)c1CN1CCC(C(F)(F)F)CC1 (single isomer, unassigned) [Example 112b, (4-Chloro-2-methoxy-3-((4-(trifluoromethyl)piperidin-1-yl)methyl)quinolin-6-yl)(1-methyl-1H-imidazol-5-yl)(6-(trifluoromethyl)pyridin-3-yl)methanol] | 97
24 | COc1nc2ccc(C(O)(c3ccc(C)nc3C)c3cnnn3C)cc2c(Cl)c1CN1CC(C(F)(F)F)C1 (single isomer, unassigned) [Example 114b, (4-Chloro-2-methoxy-3-((3-(trifluoromethyl)azetidin-1-yl)methyl)quinolin-6-yl)(2,6-dimethylpyridin-3-yl)(1-methyl-1H-1,2,3-triazol-5-yl)methanol] | 60
